Data set [1] addresses T1, recombinant full-length WRN protein (1-1432) (Homo sapiens, UniProt Q14191).
T1 construct: recombinant full-length WRN protein (1-1432)
Briefly: WRN unwinding activity, fluorogenic 384-well assay (Example A). The format is biochemical. Conditions: WRN unwinding activity, 4 hr; Table 2; read-out: 4 hr UNW pIC50 (converted). The gist of the method: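 200 pM enzyme (2× stock) preincubated with compound 4 h at ambient temperature, then 200 μM ATP and 12 nM quenched TAMRA-labelled dsDNA (2× stocks) added for 60 min; EDTA-quenched. Buffer 25 mM Tris pH 8.0, 5 mM NaCl, 2 mM MgCl2. Fluorescence at 525/598 nm; pIC50 from four-parameter fit.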

A short description of data set [2]: Cell culture media unbound percentage and stability by rapid equilibrium dialysis (Example C). Format: in vitro ADME. The settings on record: bovine, cell assay medium (RPMI-1640 with 10% fetal bovine serum), pH 7.4, rapid equilibrium dialysis, 4 hours at 37° C., read-out: Cell Culture Media Binding (% unbound). The gist of the method: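 Compound spiked into cell culture medium at nominal 1 μM and dialysed against PBS (100 mM sodium phosphate + 150 mM NaCl, pH 7.4) by rapid equilibrium dialysis, triplicate, 4 h at 37° C with shaking. LC-MS/MS peak area ratios gave percent unbound (receiver/donor) and percent stability (240 min vs 0 min).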
On the technique in general: In equilibrium dialysis free small molecules cross a membrane that holds back macromolecules.

In data set [3] the test system is SW48 human colorectal cancer cells. The experiment in a line: Calculated free drug potency in SW48 cell assay, corrected with media free fraction (Example C). Format: cell-based. Conditions: Homo sapiens, SW48, SW48 pCC50 corrected with measured free fraction in cell assay media. The method in brief:
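Compound spiked at nominal 1 μM into cell assay medium and dialysed against PBS (100 mM sodium phosphate, 150 mM NaCl, pH 7.4) by rapid equilibrium dialysis, 4 h, 37 °C, shaking. Percent unbound from LC-MS/MS peak area ratios (240 min vs 0 min); cell assay concentrations corrected by this free fraction.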

The test system of data set [4] is SW48 human colorectal cancer cells (MSI-H cancer cells). The experiment in a line: SW48 cell viability, CellTiter-Glo, 120 hours (Example B). Conditions: Homo sapiens. (Cellular ATP, detected with luciferase, serves as a proxy for viable cell number.)
Where [5] appears, read: SW48, 120 h, read-out: SW48 pCC50, SW48 cell viability, 120 hours incubation (converted), Table 2.
[6] abbreviates: SW48, read-out: SW48 pCC50, measured potency from Example B, as repeated in Table 3 (converted).

Where a name gives a salt, the structure may show the parent alone. Read-outs that look alike come from different tables or passages of the source.

T1 sequence (Q14191 whole entry): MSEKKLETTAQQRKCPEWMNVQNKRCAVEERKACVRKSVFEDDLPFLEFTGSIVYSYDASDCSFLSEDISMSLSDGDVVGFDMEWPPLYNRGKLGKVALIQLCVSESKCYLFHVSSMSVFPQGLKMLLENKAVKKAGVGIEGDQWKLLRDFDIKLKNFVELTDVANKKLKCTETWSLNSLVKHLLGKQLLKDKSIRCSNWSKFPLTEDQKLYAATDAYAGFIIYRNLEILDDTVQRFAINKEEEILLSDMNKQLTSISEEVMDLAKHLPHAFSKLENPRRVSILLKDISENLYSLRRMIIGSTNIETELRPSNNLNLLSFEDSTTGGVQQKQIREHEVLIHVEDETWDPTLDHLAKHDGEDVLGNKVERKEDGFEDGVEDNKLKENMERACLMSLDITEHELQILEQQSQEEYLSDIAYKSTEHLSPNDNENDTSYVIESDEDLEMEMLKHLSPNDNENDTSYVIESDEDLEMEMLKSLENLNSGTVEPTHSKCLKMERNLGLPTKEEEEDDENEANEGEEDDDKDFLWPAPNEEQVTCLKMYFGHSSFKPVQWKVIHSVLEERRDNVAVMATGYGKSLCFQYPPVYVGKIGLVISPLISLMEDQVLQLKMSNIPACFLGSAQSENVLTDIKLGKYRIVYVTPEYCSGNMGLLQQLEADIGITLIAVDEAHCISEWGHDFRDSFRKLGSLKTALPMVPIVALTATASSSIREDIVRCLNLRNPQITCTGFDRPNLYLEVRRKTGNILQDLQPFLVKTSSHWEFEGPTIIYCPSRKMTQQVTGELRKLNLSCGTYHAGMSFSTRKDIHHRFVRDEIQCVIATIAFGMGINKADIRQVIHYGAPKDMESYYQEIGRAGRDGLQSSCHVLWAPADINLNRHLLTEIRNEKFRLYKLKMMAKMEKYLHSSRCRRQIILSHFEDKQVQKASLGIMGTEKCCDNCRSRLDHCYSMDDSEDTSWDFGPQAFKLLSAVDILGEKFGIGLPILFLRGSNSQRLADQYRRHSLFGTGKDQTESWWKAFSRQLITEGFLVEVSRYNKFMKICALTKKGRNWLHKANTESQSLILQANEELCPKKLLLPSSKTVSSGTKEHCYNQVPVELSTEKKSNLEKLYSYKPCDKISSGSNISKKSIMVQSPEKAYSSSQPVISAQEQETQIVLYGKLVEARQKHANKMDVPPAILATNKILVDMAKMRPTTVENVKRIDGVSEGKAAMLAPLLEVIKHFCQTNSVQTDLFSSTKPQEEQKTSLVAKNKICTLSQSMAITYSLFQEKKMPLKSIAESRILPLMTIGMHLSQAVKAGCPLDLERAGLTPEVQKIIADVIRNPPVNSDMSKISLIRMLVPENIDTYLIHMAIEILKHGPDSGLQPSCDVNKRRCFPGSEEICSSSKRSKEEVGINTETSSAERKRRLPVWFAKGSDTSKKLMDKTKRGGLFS

For the molecule `Cc1nc2cc(S(=O)(=O)N(C)c3ccc([C@H]4CCC[C@@H](C(=O)Nc5ccc(C(F)(F)F)cc5F)[C@@H]4C(=O)O)cc3)ccc2n1CCN` [Example 277, (1R,2S,6R)-2-(4-((1-(2-aminoethyl)-N,2-dimethyl-1H-benzo[d]imidazole)-5-sulfonamido)phenyl)-6-((2-fluoro-4-(trifluoromethyl)phenyl)carbamoyl)cyclohexane-1-carboxylic acid], in data set [1], the IC50 is 0.631 nM. Besides, the fraction unbound at 4 h, 1 µM in data set [2] turned out to be 0.197. In addition, the CC50 in data set [3] is 309 nM; in data set [4] (setting [5]), 1580 nM; in data set [4] (setting [6]), 1580 nM.

As to `Cc1nc2cc(S(=O)(=O)N(C)c3ccc([C@H]4CCC[C@@H](C(=O)Nc5ccc(C(F)(F)F)cc5F)[C@@H]4C(=O)O)cc3)ccc2n1CCN(C)C` [Example 278, (1R,2S,6R)-2-(4-((1-(2-(dimethylamino)ethyl)-N,2-dimethyl-1H-benzo[d]imidazole)-5-sulfonamido)phenyl)-6-((2-fluoro-4-(trifluoromethyl)phenyl)carbamoyl)cyclohexane-1-carboxylic acid], the IC50 in data set [1] was 0.631 nM. Also, the fraction unbound at 4 h, 1 µM in data set [2] came out at 0.208. In addition, the CC50 in data set [3] was 26.3 nM; in data set [4] (setting [5]), 126 nM; in data set [4] (setting [6]), 126 nM.

For `CCO[C@@H]1C[C@H](c2ccc(N(C)S(=O)(=O)c3ccc4c(c3)nc3n4CCCC3)cc2)[C@@H](C(=O)O)[C@H](C(=O)Nc2ccc(C(F)(F)F)cc2F)C1` [Example 279, (1R,2R,4R,6S)-4-ethoxy-2-((2-fluoro-4-(trifluoromethyl)phenyl)carbamoyl)-6-(4-((N-methyl-1,2,3,4-tetrahydrobenzo[4,5]imidazo[1,2-a]pyridine)-7-sulfonamido)phenyl)cyclohexane-1-carboxylic acid], the IC50 in data set [1] is 2 nM. Besides, in data set [2], the fraction unbound at 4 h, 1 µM amounted to 0.079. Moreover, the CC50 in data set [3] was 10 nM; in data set [4] (setting [5]), 126 nM; in data set [4] (setting [6]), 126 nM.

In the case of `CCO[C@@H]1C[C@H](c2ccc(N(C)S(=O)(=O)c3ccc4[nH]c(C)nc4c3)cc2)[C@@H](C(=O)O)[C@H](C(=O)Nc2ccc(C(F)(F)F)cc2F)C1` [Example 281, (1R,2S,4R,6R)-2-(4-((N,2-dimethyl-1H-benzo[d]imidazole)-5-sulfonamido)phenyl)-4-ethoxy-6-((2-fluoro-4-(trifluoromethyl)phenyl)carbamoyl)cyclohexane-1-carboxylic acid], the IC50 in data set [1] is 1.58 nM. In data set [2], the fraction unbound at 4 h, 1 µM worked out at 0.148. The CC50 is 117 nM in data set [3], 794 nM in data set [4] (setting [5]) and 794 nM in data set [4] (setting [6]).

As to `CN(c1ccc([C@H]2CCC[C@@H](C(=O)Nc3ccc(C(F)(F)F)cc3F)[C@@H]2C(=O)O)cc1)S(C)(=O)=O` [Example 285, (1R,2R,6S)-2-((2-fluoro-4-(trifluoromethyl)phenyl)carbamoyl)-6-(4-(N-methylmethylsulfonamido)phenyl) cyclohexane-1-carboxylic acid], in data set [1], the IC50 is 31.6 nM. Besides, the fraction unbound at 4 h, 1 µM in data set [2] came out at 0.549. Moreover, the CC50 in data set [3] was 3470 nM; in data set [4] (setting [5]), 6310 nM; in data set [4] (setting [6]), 6310 nM.

In the case of `CCO[C@@H]1C[C@H](c2ccc(NS(=O)(=O)c3ccc4c(c3)nc(C)n4C)cc2)[C@@H](C(=O)O)[C@H](C(=O)Nc2ccc(C(F)(F)F)cc2F)C1` [Example 288, (1R,2S,4R,6R)-2-(4-((1,2-dimethyl-1H-benzo[d]imidazole)-5-sulfonamido)phenyl)-4-ethoxy-6-((2-fluoro-4-(trifluoromethyl)phenyl)carbamoyl)cyclohexane-1-carboxylic acid], in data set [1], the IC50 was 5.01 nM. Also, the fraction unbound at 4 h, 1 µM in data set [2] amounted to 0.0214. Further, the CC50 is 21.4 nM in data set [3], 1000 nM in data set [4] (setting [5]) and 1000 nM in data set [4] (setting [6]).

In the case of `Cc1nc2cc(S(=O)(=O)N(C)c3ccc([C@H]4CCC[C@@H](C(=O)Nc5ccc(C(F)(F)F)cc5F)[C@@H]4C(=O)O)cc3)cc(CCN)c2n1C` [Example 289, (1R,2S,6R)-2-(4-((7-(2-aminoethyl)-N,1,2-trimethyl-1H-benzo[d]imidazole)-5-sulfonamido)phenyl)-6-((2-fluoro-4-(trifluoromethyl)phenyl)carbamoyl)cyclohexane-1-carboxylic acid, hydrochloride], in data set [1], the IC50 is 1.58 nM. In addition, in data set [2], the fraction unbound at 4 h, 1 µM is 0.412. For the same molecule, the CC50 in data set [3] was 4070 nM; in data set [4] (setting [5]) it was 10000 nM.

With `Cc1nc2cc(S(=O)(=O)N(C)c3ccc([C@H]4CCC[C@@H](C(=O)Nc5ccc(C(F)(F)F)cc5F)[C@@H]4C(=O)O)cc3)cc(CCN(C)C)c2n1C` [Example 290, (1R,2S,6R)-2-(4-((7-(2-(dimethylamino)ethyl)-N,1,2-trimethyl-1H-benzo[d]imidazole)-5-sulfonamido)phenyl)-6-((2-fluoro-4-(trifluoromethyl)phenyl)carbamoyl)cyclohexane-1-carboxylic acid], the IC50 in data set [1] is 1.58 nM. The fraction unbound at 4 h, 1 µM in data set [2] was found to be 0.411. Further, the CC50 in data set [3] was 162 nM; in data set [4] (setting [5]), 398 nM; in data set [4] (setting [6]), 398 nM.

For the molecule `Cc1cc([C@H]2CCC[C@@H](C(=O)Nc3ccc(C(F)(F)F)cc3F)[C@@H]2C(=O)O)ccc1N(C)S(=O)(=O)c1ccc2c(c1)nc(C)n2C` [Example 295, (1R,2R,6S)-2-((2-fluoro-4-(trifluoromethyl)phenyl)carbamoyl)-6-(3-methyl-4-((N,1,2-trimethyl-1H-benzo[d]imidazole)-5-sulfonamido)phenyl)cyclohexane-1-carboxylic acid], the IC50 in data set [1] is 1.58 nM. Besides, in data set [2], the fraction unbound at 4 h, 1 µM amounted to 0.118. Further, the results for the CC50 in data set [3], in data set [4] (setting [5]) and in data set [4] (setting [6]) were 186 nM, 1580 nM and 1580 nM, respectively.

Consider `Cc1nc2cc(S(=O)(=O)N(C)c3ccc([C@H]4CCC[C@@H](C(=O)Nc5ccc(C(F)(F)F)cc5F)[C@@H]4C(=O)O)cc3Cl)ccc2n1C` [Example 296], for which the IC50 in data set [1] is 1.58 nM. For the same molecule, the fraction unbound at 4 h, 1 µM in data set [2] turned out to be 0.0979. For the same molecule, the CC50 in data set [3] was 155 nM; in data set [4] (setting [5]), 1580 nM; in data set [4] (setting [6]), 1580 nM.

In the case of `CCOC1CC(C(=O)Nc2ccc(C(F)(F)F)cc2)C(C(=O)O)C(c2ccc(N(C)S(=O)(=O)c3ccc4c(c3)nc(C)n4C)cc2)C1` [Example 330, rel-(1R,2R,4R,6S)-4-ethoxy-2-((4-(trifluoromethyl)phenyl)carbamoyl)-6-(4-((N,1,2-trimethyl-1H-benzo[d]imidazole)-5-sulfonamido)phenyl)cyclohexane-1-carboxylic acid], in data set [1], the IC50 was 5.01 nM. Moreover, in data set [2], the fraction unbound at 4 h, 1 µM is 0.102. For the same molecule, the CC50 is 40.7 nM in data set [3], 398 nM in data set [4] (setting [5]) and 398 nM in data set [4] (setting [6]).

As for `CN(c1ccc([C@H]2CCC[C@@H](C(=O)Nc3ccc(C(F)(F)F)cc3F)[C@@H]2C(=O)O)cc1)S(=O)(=O)c1ccc2c(c1)nc(Cl)n2C` [Example 365, (1R,2S,6R)-2-(4-((2-chloro-N,1-dimethyl-1H-benzo[d]imidazole)-5-sulfonamido)phenyl)-6-((2-fluoro-4-(trifluoromethyl)phenyl)carbamoyl)cyclohexane-1-carboxylic acid], the IC50 in data set [1] is 3.16 nM. Further, the fraction unbound at 4 h, 1 µM in data set [2] came out at 0.0658. Further, the CC50 in data set [3] was 26.3 nM; in data set [4] (setting [5]), 398 nM; in data set [4] (setting [6]), 398 nM.

On to `CN(c1ccc([C@H]2CCC[C@@H](C(=O)Nc3ccc(C(F)(F)F)cc3F)[C@@H]2C(=O)O)cc1)S(=O)(=O)c1ccc2c(c1)nc(CO)n2C` [Example 372, (1R,2R,6S)-2-((2-fluoro-4-(trifluoromethyl)phenyl)carbamoyl)-6-(4-((2-(hydroxymethyl)-N,1-dimethyl-1H-benzo[d]imidazole)-5-sulfonamido)phenyl)cyclohexane-1-carboxylic acid], for which the IC50 in data set [1] is 1.58 nM. In addition, the fraction unbound at 4 h, 1 µM in data set [2] stood at 0.208. For the same molecule, the results for the CC50 in data set [3], in data set [4] (setting [5]) and in data set [4] (setting [6]) were 41.7 nM, 200 nM and 200 nM, respectively.

As to `CCO[C@@H]1C[C@H](c2ccc(N(C)S(=O)(=O)c3ccc4c(c3)nc(CO)n4C)cc2)[C@@H](C(=O)O)[C@H](C(=O)Nc2ccc(C(F)(F)F)cc2F)C1` [Example 373, (1R,2R,4R,6S)-4-ethoxy-2-((2-fluoro-4-(trifluoromethyl)phenyl)carbamoyl)-6-(4-((2-(hydroxymethyl)-N,1-dimethyl-1H-benzo[d]imidazole)-5-sulfonamido)phenyl)cyclohexane-1-carboxylic acid], in data set [1], the IC50 is 1.58 nM. Besides, the fraction unbound at 4 h, 1 µM in data set [2] was 0.175. Also, the CC50 in data set [3] is 17.4 nM; in data set [4] (setting [5]) it was 100 nM; in data set [4] (setting [6]) it was 100 nM.

Values taken from US12662451B2, “Chemical compounds and uses thereof” (GLAXOSMITHKLINE INTELLECTUAL PROPERTY (NO.4) LIMITED, priority 2023, dated 2026).
